Reference: patent US10974081B2, “Treatment and prevention of sleep disorders” (Purdue Pharma L.P., priority 2016, dated 2021)

Experiments:
[1] = In vivo bioavailability after oral dosing; conditions: male, Sprague-Dawley [Crl:CD(SD)], rat, plasma; 1 mg/kg oral, non-fasted; mean of multiple determinations

Which results are given for `CNC(=O)Cn1c(=O)n(C2CCN([C@@H]3Cc4cccc5cccc3c45)CC2)c2ccccc21` [Compound W-212393]?
bioavailability [1]: 2.1%; brain penetration relative to average of Compound (1C) (0.5/0.033): at least 15 times; brain penetration relative to maximum value of Compound (1C) (0.5/0.040): at least 13 times
